Data as given in article PMC3533232, “Isolation of the bioactive peptides CCHamide-1 and CCHamide-2 from Drosophila and their putative role in appetite regulation as ligands for G protein-coupled receptors” (Frontiers in Endocrinology, 2012).
Where a SMILES comes first, the peptide text is derived from it. Bridges are numbered along the chain shown (N, C = ends). Where no end group is shown, it is not given here.

Assays:
[1] = system: CHO cells transfected with the vector alone; assay: [Ca2+]i response in CHO cells transfected with the vector alone; format: cell-based, Chinese hamster; settings: data not shown
Protocol: (§1) An assay system using CG30106- or CG14593-expressing cells was prepared as previously described ([Ida et al., 2011a],[b]). The full-length cDNA of Drosophila CG30106 (GenBank accession number: NM_136355; residues […] to 1700) and CG14593 (GenBank accession number: NM_136355; residues 656–2185) was obtained by RT-PCR using Drosophila cDNA as the template. The sense and antisense primers for CG30106 were 5′-[…]-3′ and 5′-[…]-3′, respectively. The sense and antisense primers for CG14593 were 5′-[…]-3′ and 5′-[…]-3′, respectively. The amplified cDNA was ligated into the pcDNA3.1 vector (Invitrogen). The expression vector, i.e., CG30106 or CG14593-pcDNA3.1, was transfected into Chinese hamster ovary (CHO) cells by using with Fugene6 transfection reagent (Roche), and stably expressing cells were selected using 1 mg/ml G418. […] Changes in intracellular Ca^2^+ concentrations ([Ca^2^+]i) were measured using the FlexStation 3 fluorometric imaging plate reader to conduct high-throughput measurements of intracellular Ca^2^+ concentration (Molecular Devices, CA, USA; [Marshall et al., 2005]). […] The cells were incubated with 100 μl of Calcium 4 assay kit reagent (Molecular Devices) for 1 h, and then 50 μl of each sample was added to the CHO-CG30106 or CHO-CG14593 cells to induce changes in fluorescence. The maximum [Ca^2^+]i changes were recorded. […]

CG14593 = molecular target: T1, CG14593 (Drosophila melanogaster, UniProt Q4V622); assay: [Ca2+]i assay in CHO-CG14593 cells (FlexStation 3); format: cell-based; settings: synthetic peptide not generated; predicted from amount of purified peptide and specific activity
T1 construct: expressed in transfected cells
T1 sequence (Q4V622 1-489): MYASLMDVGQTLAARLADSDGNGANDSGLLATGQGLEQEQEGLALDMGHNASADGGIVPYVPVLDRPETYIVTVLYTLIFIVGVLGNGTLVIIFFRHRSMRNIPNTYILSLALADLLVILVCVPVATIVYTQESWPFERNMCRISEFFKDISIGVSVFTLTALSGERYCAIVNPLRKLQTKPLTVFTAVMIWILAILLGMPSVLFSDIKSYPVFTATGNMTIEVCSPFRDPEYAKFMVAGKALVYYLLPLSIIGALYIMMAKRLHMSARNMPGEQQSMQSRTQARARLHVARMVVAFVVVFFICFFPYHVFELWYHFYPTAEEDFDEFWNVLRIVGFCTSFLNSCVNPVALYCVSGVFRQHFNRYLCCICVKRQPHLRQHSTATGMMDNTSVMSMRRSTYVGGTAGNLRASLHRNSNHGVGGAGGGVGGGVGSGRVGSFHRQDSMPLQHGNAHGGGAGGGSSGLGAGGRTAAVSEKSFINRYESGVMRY
Protocol: as §1

blowfly Phormia regina = assay: Proboscis extension reflex (PER) test; format: in vivo; settings: 30 min after injection of 10 pmol (1 μl) into the shoulder, linger solution control 236 mM, p < 0.05, five sets of 20 flies
Protocol: The proboscis extension reflex (PER) test and feeding test were performed for the blowfly Phormia regina as previously described ([Nisimura et al., 2005]; [Ida et al., 2011a]). CCHamide-2 was dissolved in blowfly linger solution at a concentration of […]. Twenty flies were secured by their wings using washing pins, and the first PER test was performed by using 12 steps of sucrose concentrations that had been prepared by twofold serial dilutions in distilled water, beginning from a sucrose concentration of 1 M. We investigated the PER in three different groups of 20 flies each: no injection, fly linger injection, and fly linger plus peptide injection. The PER tests were performed 30 min after 1 μl of blowfly linger solution with or without peptide was injected into the shoulder of each fly. We repeated five sets of PER tests each, in which 20 flies were used in each batch.
Results are presented as the mean ± SEM for each group. To compare the PER thresholds among the three groups, we used a non-parametric Steel–Dwass test. The criterion for statistical significance was p < 0.05 for all tests. The statistical software program GraphPad PRISM (GraphPad software, CA, USA) was used for analyses.
In contrast, no difference was observed between the mean PER threshold without any injection and 30 min after linger solution injection (222 and 236 mM, respectively, p > 0.05). […]

flies = settings: administration of CCHamide-2; ref Hiraguchi et al., paper in preparation; cited from earlier work
Description: In addition, CCHamide-1 and CCHamide-2 have been detected in the nervous system and midgut in a mass spectrometry study performed by [Reiher et al. (2011)]. […] It is generally accepted that brain–gut peptides regulate feeding behavior in mammals ([Williams et al., 2001]). These peptides include neuropeptide Y, peptide YY, gastrin-releasing peptide, vasoactive inte ...

Row | Compound | [Ca2+]i response in vector-only CHO cells [1] | predicted potency for activating CG14593 (CG14593) | mean PER threshold (sucrose concentration at which 50% of flies show PER) (blowfly Phormia regina) [mM] | sucrose intake (flies)
1 | CC(C)C[C@@H]1NC(=O)[C@@H](NC(=O)[C@@H](N)CO)CSSC[C@@H](C(=O)N[C@@H](Cc2c[nH]c3ccccc23)C(=O)NCC(=O)N[C@@H](C)C(=O)N[C@@H](Cc2c[nH]cn2)C(N)=O)NC(=O)[C@H](CO)NC(=O)[C@H](Cc2c[nH]cn2)NC(=O)CNC(=O)[C@H](Cc2ccc(O)cc2)NC(=O)[C@H](CCC(=O)O)NC1=O [CCHamide-1] (H-SCLEYGHSCWGAH-NH2; disulfide 2-9) | Neither CCHamide-2 nor CCHamide-1 induced a response | – | – | –
2 | KKGCQAYGHVCYGGH-NH2 (disulfide 4-11 (inferred); N-terminus assumed; SMILES CC(C)[C@@H]1NC(=O)[C@H](Cc2c[nH]cn2)NC(=O)CNC(=O)[C@H](Cc2ccc(O)cc2)NC(=O)[C@H](C)NC(=O)[C@H](CCC(N)=O)NC(=O)[C@@H](NC(=O)CNC(=O)[C@H](CCCCN)NC(=O)[C@@H](N)CCCCN)CSSC[C@@H](C(=O)N[C@@H](Cc2ccc(O)cc2)C(=O)NCC(=O)NCC(=O)N[C@@H](Cc2c[nH]cn2)C(N)=O)NC1=O) [N-terminal extended form of CCHamide-2 purified from flies; not synthesized] | – | high potency similar to that of other forms of CCHamide-2 | – | –
3 | CC(C)[C@@H]1NC(=O)[C@H](Cc2c[nH]cn2)NC(=O)CNC(=O)[C@H](Cc2ccc(O)cc2)NC(=O)[C@H](C)NC(=O)[C@H](CCC(N)=O)NC(=O)[C@@H](NC(=O)CN)CSSC[C@@H](C(=O)N[C@@H](Cc2ccc(O)cc2)C(=O)NCC(=O)NCC(=O)N[C@@H](Cc2c[nH]cn2)C(N)=O)NC1=O [CCHamide-2] (H-GCQAYGHVCYGGH-NH2; disulfide 2-9) | Neither CCHamide-2 nor CCHamide-1 induced a response | – | 77.2 | significantly increased
